# Test results: ChEMBL document CHEMBL1201862, “PubChem BioAssay data set” (2004)
#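 Where inhibition never reached the appropriate level, the endpoint shown equals the highest concentration tested. Otherwise, values were interpolated linearly from a five-concentration, 48-hour dose response in 96-well plates. Abbreviation: GI50, concentration required for 50% inhibition of growth.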 Calls of active or inactive are those of the source. No stated cut-off is given here; in the data, active = GI50 up to about 1.1 µM and inactive = higher.
# Columns and labels:
# Test in all cases: growth of human tumour cells (NCI), 48 h
# SR = tested on: SR
# HCT-15 = tested on: HCT-15
# MOLT-4 = tested on: MOLT-4
# SF-539 = tested on: SF-539
# MDA-MB-231 = tested on: MDA-MB-231
# EKVX = tested on: EKVX
# SK-MEL-28 = tested on: SK-MEL-28
# NCI-H226 = tested on: NCI-H226
# UACC-257 = tested on: UACC-257
# IGROV-1 = tested on: IGROV-1
# MDA-MB-435 = tested on: MDA-MB-435
# HOP-92 = tested on: HOP-92
# HL-60 = tested on: HL-60
# U-251 = tested on: U-251
# Hs-578T = tested on: Hs-578T
# BT-549 = tested on: BT-549
# PC-3 = tested on: PC-3
# RXF 393 = tested on: RXF 393
# MCF7 = tested on: MCF7
# NCI-H522 = tested on: NCI-H522
# MDA-N = tested on: MDA-N
# HCT-116 = tested on: HCT-116
# SNB-75 = tested on: SNB-75
# LOX IMVI = tested on: LOX IMVI
# SK-OV-3 = tested on: SK-OV-3
# SNB-19 = tested on: SNB-19
# ACHN = tested on: ACHN
# HT-29 = tested on: HT-29
# A549 = tested on: A549
# COLO 205 = tested on: COLO 205
# SN12C = tested on: SN12C
# KM12 = tested on: KM12
# NCI-H460 = tested on: NCI-H460
# SW-620 = tested on: SW-620
# T47D = tested on: T47D
# TK-10 = tested on: TK-10
# HCC 2998 = tested on: HCC 2998
# OVCAR-4 = tested on: OVCAR-4
# NCI/ADR-RES = tested on: NCI/ADR-RES
# SK-MEL-2 = tested on: SK-MEL-2
# UO-31 = tested on: UO-31
# OVCAR-8 = tested on: OVCAR-8
# CCRF-CEM = tested on: CCRF-CEM
# CAKI-1 = tested on: CAKI-1
# OVCAR-5 = tested on: OVCAR-5
# HOP-62 = tested on: HOP-62
# K562 = tested on: K562
# 786-0 = tested on: 786-0
# UACC-62 = tested on: UACC-62
# OVCAR-3 = tested on: OVCAR-3
# SF-295 = tested on: SF-295
# M14 = tested on: M14
# RPMI-8226 = tested on: RPMI-8226
# NCI-H23 = tested on: NCI-H23
# DU-145 = tested on: DU-145
# SF-268 = tested on: SF-268
# Malme-3M = tested on: Malme-3M
# SK-MEL-5 = tested on: SK-MEL-5
# A498 = tested on: A498
structure (smiles),measurement,setting,value
CCN(c1cccc(NC(=S)Nc2ccccc2N(CC)c2cc(-c3ccccc3)no2)c1)c1cc(-c2ccccc2)no1,GI50,SR,> 100 µM (inactive)
same,GI50,HCT-15,> 100 µM
same,GI50,MOLT-4,> 100 µM (inactive)
same,GI50,SF-539,> 100 µM (inactive)
same,GI50,MDA-MB-231,> 100 µM (inactive)
same,GI50,EKVX,> 100 µM (inactive)
same,GI50,SK-MEL-28,> 100 µM (inactive)
same,GI50,NCI-H226,> 100 µM (inactive)
same,GI50,UACC-257,> 100 µM (inactive)
same,GI50,IGROV-1,> 100 µM (inactive)
same,GI50,MDA-MB-435,> 100 µM (inactive)
same,GI50,HOP-92,> 100 µM (inactive)
same,GI50,HL-60,> 100 µM (inactive)
same,GI50,U-251,> 100 µM (inactive)
same,GI50,Hs-578T,> 100 µM (inactive)
same,GI50,BT-549,> 100 µM (inactive)
same,GI50,PC-3,> 100 µM (inactive)
same,GI50,RXF 393,> 100 µM (inactive)
same,GI50,MCF7,> 100 µM (inactive)
same,GI50,NCI-H522,> 100 µM (inactive)
same,GI50,MDA-N,> 100 µM (inactive)
same,GI50,HCT-116,> 100 µM (inactive)
same,GI50,SNB-75,> 100 µM (inactive)
same,GI50,LOX IMVI,> 100 µM (inactive)
same,GI50,SK-OV-3,> 100 µM (inactive)
same,GI50,SNB-19,> 100 µM (inactive)
same,GI50,ACHN,> 100 µM (inactive)
same,GI50,HT-29,> 100 µM (inactive)
same,GI50,A549,> 100 µM (inactive)
same,GI50,COLO 205,> 100 µM (inactive)
same,GI50,SN12C,> 100 µM (inactive)
same,GI50,KM12,> 100 µM (inactive)
same,GI50,NCI-H460,> 100 µM (inactive)
same,GI50,SW-620,> 100 µM (inactive)
same,GI50,T47D,> 100 µM (inactive)
same,GI50,TK-10,> 100 µM (inactive)
same,GI50,HCC 2998,> 100 µM (inactive)
same,GI50,OVCAR-4,> 100 µM (inactive)
same,GI50,NCI/ADR-RES,> 100 µM (inactive)
same,GI50,SK-MEL-2,> 100 µM (inactive)
same,GI50,UO-31,> 100 µM (inactive)
same,GI50,OVCAR-8,> 100 µM (inactive)
same,GI50,CCRF-CEM,> 100 µM (inactive)
same,GI50,CAKI-1,> 100 µM (inactive)
same,GI50,OVCAR-5,> 100 µM (inactive)
same,GI50,HOP-62,> 100 µM (inactive)
same,GI50,K562,> 100 µM (inactive)
same,GI50,786-0,> 100 µM (inactive)
same,GI50,UACC-62,> 100 µM (inactive)
same,GI50,OVCAR-3,> 100 µM (inactive)
same,GI50,SF-295,> 100 µM (inactive)
same,GI50,M14,> 100 µM (inactive)
same,GI50,RPMI-8226,> 100 µM (inactive)
same,GI50,NCI-H23,> 100 µM (inactive)
same,GI50,DU-145,> 100 µM (inactive)
same,GI50,SF-268,> 100 µM (inactive)
same,GI50,Malme-3M,> 100 µM (inactive)
same,GI50,SK-MEL-5,> 100 µM (inactive)
CC/C(Cl)=N\OC(=O)Nc1ccc(F)cc1F,GI50,HCT-15,2.34 µM
same,GI50,MOLT-4,1.55 µM (inactive)
same,GI50,SF-539,7.01 µM (inactive)
same,GI50,MDA-MB-231,17.5 µM (inactive)
same,GI50,EKVX,8.55 µM (inactive)
same,GI50,SK-MEL-28,17.7 µM (inactive)
same,GI50,NCI-H226,17.9 µM (inactive)
same,GI50,UACC-257,17.3 µM (inactive)
same,GI50,IGROV-1,15.9 µM (inactive)
same,GI50,MDA-MB-435,17 µM (inactive)
same,GI50,HOP-92,1.93 µM (inactive)
same,GI50,HL-60,1.91 µM (inactive)
same,GI50,U-251,22.4 µM (inactive)
same,GI50,Hs-578T,32.2 µM (inactive)
same,GI50,BT-549,2.38 µM (inactive)
same,GI50,A498,28.3 µM (inactive)
same,GI50,PC-3,17.7 µM (inactive)
same,GI50,RXF 393,12.8 µM (inactive)
same,GI50,MCF7,7.78 µM (inactive)
same,GI50,NCI-H522,1.54 µM (inactive)
same,GI50,MDA-N,5.87 µM (inactive)
same,GI50,HCT-116,6.62 µM (inactive)
same,GI50,SNB-75,20.6 µM (inactive)
same,GI50,LOX IMVI,2.5 µM (inactive)
same,GI50,SK-OV-3,19.3 µM (inactive)
same,GI50,SNB-19,25.4 µM (inactive)
same,GI50,ACHN,1.89 µM (inactive)
same,GI50,HT-29,21.3 µM (inactive)
same,GI50,A549,19.9 µM (inactive)
same,GI50,COLO 205,1.91 µM (inactive)
same,GI50,SN12C,5.73 µM (inactive)
same,GI50,KM12,19.9 µM (inactive)
same,GI50,NCI-H460,29.1 µM (inactive)
same,GI50,SW-620,1.93 µM (inactive)
same,GI50,T47D,6.28 µM (inactive)
same,GI50,TK-10,12 µM (inactive)
same,GI50,HCC 2998,19.3 µM (inactive)
same,GI50,OVCAR-4,17.9 µM (inactive)
same,GI50,NCI/ADR-RES,17.8 µM (inactive)
same,GI50,SK-MEL-2,17.4 µM (inactive)
same,GI50,UO-31,14.9 µM (inactive)
same,GI50,OVCAR-8,19.8 µM (inactive)
same,GI50,CCRF-CEM,1.54 µM (inactive)
same,GI50,CAKI-1,1.71 µM (inactive)
same,GI50,OVCAR-5,17.9 µM (inactive)
same,GI50,HOP-62,21 µM (inactive)
same,GI50,K562,0.244 µM (active)
same,GI50,786-0,4.38 µM (inactive)
same,GI50,UACC-62,15.2 µM (inactive)
same,GI50,OVCAR-3,17 µM (inactive)
same,GI50,SF-295,26.4 µM (inactive)
same,GI50,M14,7.6 µM (inactive)
same,GI50,RPMI-8226,1.49 µM (inactive)
same,GI50,NCI-H23,20 µM (inactive)
same,GI50,DU-145,17.6 µM (inactive)
same,GI50,SF-268,24.1 µM (inactive)
same,GI50,Malme-3M,2.9 µM (inactive)
same,GI50,SK-MEL-5,6.12 µM (inactive)
S=C1N(/N=C/c2c3ccccc3cc3ccccc23)C(=N\c2ccccc2)/C(=N/c2ccccc2)N1c1ccccc1,GI50,SR,> 100 µM (inactive)
same,GI50,HCT-15,> 100 µM
same,GI50,MOLT-4,> 100 µM (inactive)
same,GI50,SF-539,> 100 µM (inactive)
same,GI50,MDA-MB-231,> 100 µM (inactive)
same,GI50,EKVX,> 100 µM (inactive)
same,GI50,SK-MEL-28,> 100 µM (inactive)
same,GI50,NCI-H226,> 100 µM (inactive)
same,GI50,UACC-257,> 100 µM (inactive)
same,GI50,IGROV-1,> 100 µM (inactive)
same,GI50,MDA-MB-435,> 100 µM (inactive)
same,GI50,HOP-92,> 100 µM (inactive)
same,GI50,U-251,> 100 µM (inactive)
same,GI50,Hs-578T,> 100 µM (inactive)
same,GI50,BT-549,> 100 µM (inactive)
same,GI50,PC-3,> 100 µM (inactive)
same,GI50,RXF 393,> 100 µM (inactive)
same,GI50,MCF7,> 100 µM (inactive)
same,GI50,NCI-H522,> 100 µM (inactive)
same,GI50,MDA-N,> 100 µM (inactive)
same,GI50,HCT-116,> 100 µM (inactive)
same,GI50,SK-OV-3,> 100 µM (inactive)
same,GI50,SNB-19,> 100 µM (inactive)
same,GI50,HT-29,> 100 µM (inactive)
same,GI50,A549,> 100 µM (inactive)
same,GI50,COLO 205,> 100 µM (inactive)
same,GI50,SN12C,> 100 µM (inactive)
same,GI50,KM12,> 100 µM (inactive)
same,GI50,NCI-H460,> 100 µM (inactive)
same,GI50,SW-620,> 100 µM (inactive)
same,GI50,T47D,> 100 µM (inactive)
same,GI50,TK-10,> 100 µM (inactive)
same,GI50,HCC 2998,> 100 µM (inactive)
same,GI50,NCI/ADR-RES,> 100 µM (inactive)
same,GI50,SK-MEL-2,> 100 µM (inactive)
same,GI50,UO-31,> 100 µM (inactive)
same,GI50,OVCAR-8,> 100 µM (inactive)
same,GI50,CAKI-1,> 100 µM (inactive)
same,GI50,OVCAR-5,> 100 µM (inactive)
same,GI50,HOP-62,> 100 µM (inactive)
same,GI50,K562,> 100 µM (inactive)
same,GI50,786-0,> 100 µM (inactive)
same,GI50,UACC-62,> 100 µM (inactive)
same,GI50,OVCAR-3,> 100 µM (inactive)
same,GI50,SF-295,> 100 µM (inactive)
same,GI50,M14,> 100 µM (inactive)
same,GI50,RPMI-8226,> 100 µM (inactive)
same,GI50,NCI-H23,> 100 µM (inactive)
same,GI50,DU-145,> 100 µM (inactive)
same,GI50,SF-268,> 100 µM (inactive)
same,GI50,Malme-3M,> 100 µM (inactive)
same,GI50,SK-MEL-5,> 100 µM (inactive)
